The results in this text go back to patent US20240350478A1, “APPLICATION OF BENZISOQUINOLINE DIKETONE COMPOUND IN TREATMENT OF TUMOR” (NANJING SHIJIANG MEDICINE TECHNOLOGY CO., LTD, priority 2021, published 2024).

What all share (format): cell-based
Experiment [1] relates to CFPAC-1 (human pancreatic cancer cell). As to the kind of experiment: CellTiter-Glo cell viability, CFPAC-1. As to conditions: insensitive group, 3-4 days of culture, n=3. The protocol: (§1) The inhibitory effect of pixantrone maleate on various tumor cell lines was detected using cell activity detection reagent. • Cell viability was detected using the Promega CellTiter-Glo kit, cell viability was determined by directly measuring intracellular ATP content. In the experiment, the IC50 value of pixantrone maleate on various tumor cell lines was determined. Each tumor cell was cultured separately in relevant medium (+p/s), and was incubated for 3 h, then the gradient diluted pixantrone maleate was added. After 3-4 days of culture, the relevant IC50 (50% inhibiting concentration) was measured (n=3). The name, source and culture conditions of each tumor cell line were as follows: Cell line CFPAC-1 (ATCC, No. CRL-1918) was cultured in 10% fetal bovine serum-containing IMDM medium (+P/S).
(In general: ATP-based viability assays read luminescence as a measure of living cells.)

The test system of experiment [2] is GB-1 (human glioblastoma cell). The experiment in a line: CellTiter-Glo cell viability, GB-1. As to conditions: insensitive group, 3-4 days of culture, n=3. How it is done:
as §1, with “GB-1 (JCRB,” for “CFPAC-1 (ATCC,”, “IFO50489)” for “CRL-1918)”, “DMEM” for “IMDM”

The subject of experiment [3] is NCI-H82 (Con) cell. The experiment in a line: CellTiter-Glo cell viability, control NCI-H82 (Con) cell. As to conditions: Homo sapiens; control NCI-H82 cell transfected with empty virus vector; n=3. The text has this: (§2) The NNMT protein-overexpressing NCI-H82 cell (NCI-H82 (ov-NNMT)) was obtained by inserting the NNMT gene into NCI-H82 cell using a viral vector. The control NCI-H82 cell (NCI-H82 (Con)) was obtained by transfecting NCI-H82 cell with empty virus vector without carrying NNMT gene. The expressing level of NNMT protein in control NCI-H82 cell (NCI-H82 (Con)) and NNMT protein-overexpressing NCI-H82 cell (NCI-H82 (ov-NNMT)) was detected using Western Blot assay (as shown in FIG. 7), it could be seen from FIG. 7 that the NNMT protein in NCI-H82 (ov-NNMT) cell was overexpressed compared with the expression level of NNMT protein in NCI-H82(Con) cell. The IC50 value of pixantrone maleate on control NCI-H82 cell (NCI-H82 (Con)) and NNMT protein-overexpressing NCI-H82 cell (NCI-H82 (ov-NNMT)) was determined using Promega CellTiter-Glo kit which detected cell viability by directly measuring intracellular ATP content (n=3), the experiment result was shown in Table 4 below: […]

The test system of experiment [4] is NCI-H82 (ov-NNMT) cell. The experiment in a line: CellTiter-Glo cell viability, NNMT protein-overexpressing NCI-H82 (ov-NNMT) cell. The following applies: Homo sapiens, n=3.
From the text: as §2

Experiment [5] relates to NCI-H82 (human small cell lung cancer cell). The experiment in a line: CellTiter-Glo cell viability, NCI-H82. As to conditions: sensitive group, 3-4 days of culture, n=3. The protocol: as §1, with “NCI-H82” for “CFPAC-1”, “HTB-175)” for “CRL-1918)”, “RPMI1640” for “IMDM”
For experiment [6], the system named is SW48 (human colon adenocarcinoma cell). As to the kind of experiment: CellTiter-Glo cell viability, SW48. As to conditions: sensitive group, 3-4 days of culture, n=3. The protocol:
as §1, with “SW48” for “CFPAC-1”, “CCL-231)” for “CRL-1918)”, “Leibovitz's L-15” for “IMDM”

Experiment [7] has as its system G-401 (human renal carcinoma Wilms cell). The experiment in a line: CellTiter-Glo cell viability, G-401. The following applies: sensitive group, 3-4 days of culture, n=3. How it is done: as §1, with “G-401” for “CFPAC-1”, “CRL-1441)” for “CRL-1918)”, “McCoy's 5a” for “IMDM”
For experiment [8], the system named is WSU-DLCL2 (human diffuse large B-cell lymphoma). As to the kind of experiment: CellTiter-Glo cell viability, WSU-DLCL2. As to conditions: WSUDLCL2, sensitive group, 3-4 days of culture, n=3. How it is done: as §1, with “WSU-DLCL2 (DSMZ,” for “CFPAC-1 (ATCC,”, “ACC-575)” for “CRL-1918)”, “RPMI1640” for “IMDM”
For experiment [9], the system named is SF-126 (human glioblastoma multiforme cell). As to the kind of experiment: CellTiter-Glo cell viability, SF-126. As to conditions: insensitive group, 3-4 days of culture, n=3. How it is done:
as §1, with “SF126 (JCRB,” for “CFPAC-1 (ATCC,”, “IFO50286)” for “CRL-1918)”, “EMEM” for “IMDM”

The subject of experiment [10] is MDA-MB-453 (breast cancer cell). The experiment in a line: CellTiter-Glo cell viability, MDA-MB-453. As to conditions: Homo sapiens, sensitive group, 3-4 days of culture, n=3. The protocol: as §1, with “MDA-MB-453” for “CFPAC-1”, “HTB-131)” for “CRL-1918)”, “Leibovitz's L-15” for “IMDM”
Experiment [11] concerns 786-O (clear cell renal cell adenocarcinoma cell). The experiment in a line: CellTiter-Glo cell viability, 786-O. As to conditions: Homo sapiens, 786-0, insensitive group, 3-4 days of culture, n=3. How it is done: as §1, with “786-0” for “CFPAC-1”, “CRL-1932)” for “CRL-1918)”, “RPMI1640” for “IMDM”

Counter-ions that a name gives are not always drawn.

The term IC50 denotes the concentration that inhibits the measured activity by half. For `NCCNc1ccc(NCCN)c2c1C(=O)c1ccncc1C2=O` [Pixantrone maleate, pixantrone maleate], the IC50 was 11700 nM in [1]; 6560 nM in experiment [2]; 690 nM in experiment [3]; 1930 nM in experiment [4]; 740 nM in experiment [5]; 20 nM in experiment [6]. In addition, the IC50 in [7] was determined as 290 nM; in experiment [8] it was 20 nM; in [9] it was 5420 nM; in [10], 860 nM; in experiment [11], 21600 nM.
